Experimental data as given in patent US6495514B1, “Method for reducing inflammation and inducing an analgesic effect and compounds thereof” (Mercer University, priority 1998, dated 2002).
Marks after values point to notes of the source that are not given here.

Key:
tail withdrawal latency = test: Tail-flick response to heat (50° C. water); type: in vivo, rat; details: s.c., doses up to 750 mg/kg; 15, 30 and 60 minutes post-drug
Description: (§1) The effects of PBA on the perception of pain was evaluated using several different animal models. The spinally-mediated tail-flick response to heat in fasted rats (250-290 g) was used by measuring the withdrawal latency following immersion of the rodent's tail (2″) into hot water (50° C.). PBA at several different dose levels was administered subcutaneously and the time to tail withdrawal was measured at 0, 15, 30 and 60 minutes post-drug administration. The analgesic effects of PBA were also evaluated in fasted mice following the injection of either phenyl-p-quinone or acetylcholine. Male, ND4 Swiss mice (15-20 g) were dosed subcutaneously with PBA or saline followed immediately by the injection of phenyl-p-quinone (2 mg/kg i.p.). After 5 minutes, the number of writhes (abdominal constrictions along with contortion of the trunk and extension of the hindlimbs) was counted over the next 10 minutes. When acetylcholine (6 mg/kg i.p.) was used as the noxious agent, PBA was administered subcutaneously 15 minutes before the administration of the algesic agent. The number of writhes produced was counted over the last 5 minutes following the algesic agent.

[1] = target: T1, peptidylamidoglycolate lyase (PGL) (Rattus norvegicus, UniProt P14925); test: Serum PGL activity after PBA dosing in rats; type: in vivo; details: 500 mg/kg s.c., 24 hour observation period
T1 construct: from tissue; host or cells: rat serum (tail vein blood)
T1 sequence (P14925 36-976): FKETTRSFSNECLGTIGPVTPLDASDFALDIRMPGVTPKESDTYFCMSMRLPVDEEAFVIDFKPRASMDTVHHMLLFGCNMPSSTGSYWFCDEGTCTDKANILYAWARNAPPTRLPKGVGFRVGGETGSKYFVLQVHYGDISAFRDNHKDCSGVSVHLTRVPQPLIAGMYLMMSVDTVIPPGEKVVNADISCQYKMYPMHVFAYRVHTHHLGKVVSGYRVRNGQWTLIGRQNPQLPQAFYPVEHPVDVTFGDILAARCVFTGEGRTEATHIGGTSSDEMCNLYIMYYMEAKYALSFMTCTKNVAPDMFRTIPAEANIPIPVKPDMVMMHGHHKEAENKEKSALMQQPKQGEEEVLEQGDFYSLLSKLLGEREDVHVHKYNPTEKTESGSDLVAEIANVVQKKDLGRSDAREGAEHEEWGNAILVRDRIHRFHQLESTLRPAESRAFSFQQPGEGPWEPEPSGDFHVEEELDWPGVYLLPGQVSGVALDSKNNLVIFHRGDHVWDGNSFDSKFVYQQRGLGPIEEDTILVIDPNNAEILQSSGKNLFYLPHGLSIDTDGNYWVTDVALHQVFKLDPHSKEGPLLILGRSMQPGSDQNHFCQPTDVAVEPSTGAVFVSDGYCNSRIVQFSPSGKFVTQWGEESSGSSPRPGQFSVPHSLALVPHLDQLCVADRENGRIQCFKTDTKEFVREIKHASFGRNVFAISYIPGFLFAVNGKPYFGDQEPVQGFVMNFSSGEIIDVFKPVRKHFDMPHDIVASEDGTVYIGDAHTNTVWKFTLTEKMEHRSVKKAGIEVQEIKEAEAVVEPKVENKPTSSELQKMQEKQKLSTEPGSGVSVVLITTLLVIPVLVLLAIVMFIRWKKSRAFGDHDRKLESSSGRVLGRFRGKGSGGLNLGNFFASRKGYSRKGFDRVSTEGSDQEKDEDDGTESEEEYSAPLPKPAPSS
Description: Male rats were fasted overnight and anesthetized with ether to obtain blood samples for measuring PAM and PGL activity in serum. Blood (0.5 ml) was collected from the tail vein at different times and spun at 14,000×g for 5 minutes. Serum was collected and stored at −70° C. until assayed. PAM activity was determined based on the procedure disclosed in Katopodis et al. (Biochemistry 30, 6189-6194, 1991). Briefly, 50 μl of serum sample (enzyme source) was added to 200 μl of the assay mixture which contained tripeptide TNP-D-Tyr-Val-Gly as the enzyme substrate (40 μM), copper sulfate (15 μM), L-ascorbate (4 mM) and catalase (1 mg/ml) in MES buffer (100 mM, pH 6.5). After a 30 minute incubation period at 37° C., an aliquot (90 μl) was quenched with 10 μl of HClO4 (3M) and centrifuged at 14,000×g for 5 minutes. A 20 μl aliquot was removed and used to assay for product using reverse phase HPLC at 344 nm on a C8 column with a mobile phase of 56% water/0.1% trifluoroacetic acid/44% acetonitrile at a flow rate of 1.5 mL/min. In this manner, both TNP-D-Tyr-Val-NH2 as well as the TNP-D-Tyr-Val-α-hydroxyGly were quantitated simultaneously. […] Enzyme activity was expressed as milliunits per milliliter which is the amount of enzyme required to produce one nanomole of product.

substance P (SP) = test: SP levels in hind paw tissue (RIA); type: in vivo, rat; details: 75 mg/kg/hr for 7 days, prior to carrageenan (time 0)
Description: The effects of PBA on levels of SP were evaluated using a modification of a method previously disclosed in Ahmed et al. (Peptides 15, 317-322, 1994). Briefly, at different times following the administration of carrageenan, hind paw ankle joints were removed, immediately frozen on dry ice and stored at −80° C. until assayed for SP. After the frozen sample was weighed, it was boiled for 7 minutes as a 10% w/v solution of 2M acetic acid in 4% EDTA, pH 3.5, cut into small pieces and boiled for an additional 7 minutes. Samples were then homogenized for 60 seconds in a Brinkmann Polytron (Westbury, N.Y.), sonicated for 30 seconds and centrifuged at 3000×g for 20 minutes. Supernatants were lyophilized and then diluted in radioimmunoassay (RIA) buffer prior to analysis. SP levels were determined from these samples by using a commercially available RIA kit (INCSTAR, Stillwater, Minn.). Initial experiments conducted to insure the specificity of the substance P antibody for SP found the cross-reactivity for the glycine-extended precursor to be 1.7% at concentrations up to 100 nanograms/ml.

[2] = system: phenyl-p-quinone-induced writhing; test: Phenyl-p-quinone-induced writhing; type: in vivo, mice
Description: as §1

carrageenan edema = test: Carrageenan-induced hind paw edema; type: in vivo, rat; details: for inhibition of hind paw edema: 2 hours post-administration
Description: Carrageenan, bradykinin and serotonin edemas were induced in anesthetized, male Sprague-Dawley rats (150-175 g) by injecting 0.5 mg (0.05 ml) of carrageenan, 50 μg (0.1 ml) of bradykinin and 20 μg (0.1 ml) of serotonin, respectively, into the subplantar region of the left hind paws the contralateral hind paws received saline only. Hind paw volumes (edema) were measured plethysmographically by displacement of mercury at 0, 1, 2, 3, 4 and 6 hours post administration of carrageenan, 30 minutes after bradykinin and 1 hour after serotonin. Swelling was determined by subtracting the volume (ml) of the right hind . paw from that of the left. […] In those experiments in which PBA was delivered continuously to rats over a 7 day period prior to the administration of carrageenan, ALZET osmotic pumps (Palo Alto, Calif.) were filled with drug and implanted subcutaneously between the scapulae into anesthetized rats.

[3] = target: T2, peptidylglycine α-monooxygenase (PAM) (Rattus norvegicus, UniProt P14925); test: Serum PAM activity after PBA dosing in rats; type: in vivo; details: for inhibition at 500 mg/kg: rat, sc
T2 construct: 50 μl of serum sample (enzyme source) was added to 200 μl of the assay mixture; from tissue; host or cells: rat serum (tail vein blood)
T2 sequence (P14925 36-976): T1 sequence (P14925 36-976)
Description: Male rats were fasted overnight and anesthetized with ether to obtain blood samples for measuring PAM and PGL activity in serum. Blood (0.5 ml) was collected from the tail vein at different times and spun at 14,000×g for 5 minutes. Serum was collected and stored at −70° C. until assayed. PAM activity was determined based on the procedure disclosed in Katopodis et al. (Biochemistry 30, 6189-6194, 1991). Briefly, 50 μl of serum sample (enzyme source) was added to 200 μl of the assay mixture which contained tripeptide TNP-D-Tyr-Val-Gly as the enzyme substrate (40 μM), copper sulfate (15 μM), L-ascorbate (4 mM) and catalase (1 mg/ml) in MES buffer (100 mM, pH 6.5). After a 30 minute incubation period at 37° C., an aliquot (90 μl) was quenched with 10 μl of HClO4 (3M) and centrifuged at 14,000×g for 5 minutes. A 20 μl aliquot was removed and used to assay for product using reverse phase HPLC at 344 nm on a C8 column with a mobile phase of 56% water/0.1% trifluoroacetic acid/44% acetonitrile at a flow rate of 1.5 mL/min. In this manner, both TNP-D-Tyr-Val-NH2 as well as the TNP-D-Tyr-Val-α-hydroxyGly were quantitated simultaneously. PGL activity was assayed by measuring the conversion of α-hydroxyhippuric acid to benzamide as disclosed in Katopodis and May (Biochemistry 29, 4541-4548, 1990). Briefly, 50 μl of the serum sample was added to 200 μl of a 100 mM MES buffer solution (pH 6.5) containing 2 mM of the enzyme substrate. After incubation for 30 minutes at 37° C., an aliquot of the assay mixture was quenched with 3 M HClO4, centrifuged at 14,000×g and 20 μl used to analyze for benzamide product by HPLC using a C8 reverse phase column. Product detection was performed at 225 nm using a mobile phase of 80% water/0.1% trifluoroacetic acid/20% acetonitrile at a flow rate of 1.5 mL/min. Enzyme activity was expressed as milliunits per milliliter which is the amount of enzyme required to produce one nanomole of product.

bradykinin edema = test: Bradykinin-induced hind paw edema; type: in vivo, rat
Description: (§2) Carrageenan, bradykinin and serotonin edemas were induced in anesthetized, male Sprague-Dawley rats (150-175 g) by injecting 0.5 mg (0.05 ml) of carrageenan, 50 μg (0.1 ml) of bradykinin and 20 μg (0.1 ml) of serotonin, respectively, into the subplantar region of the left hind paws the contralateral hind paws received saline only. Hind paw volumes (edema) were measured plethysmographically by displacement of mercury at 0, 1, 2, 3, 4 and 6 hours post administration of carrageenan, 30 minutes after bradykinin and 1 hour after serotonin. Swelling was determined by subtracting the volume (ml) of the right hind . paw from that of the left. PBA was administered subcutaneously 30 minutes before the administration of carrageenan and serotonin and one hour before bradykinin. In those experiments in which PBA was delivered continuously to rats over a 7 day period prior to the administration of carrageenan, ALZET osmotic pumps (Palo Alto, Calif.) were filled with drug and implanted subcutaneously between the scapulae into anesthetized rats.

serotonin edema = test: Serotonin-induced hind paw edema; type: in vivo, rat
Description: as §2

[4] = system: acetylcholine-induced writhing; test: Acetylcholine-induced writhing; type: in vivo, mice
Description: as §1

[5] = dose that produced significant inhibition of carrageenan edema

O=C(O)C/C=C/c1ccccc1 [PBA, trans-4-phenyl-3-butenoic acid]
effect on time to tail withdrawal (tail withdrawal latency): did not have any effect | effect on serum PGL activity [1]: no effect | SP levels in hind paw tissue compared to controls (substance P (SP)): significantly reduced | analgesic effect in writhing assay ([2]; 100 mg/kg dose): significant analgesic effect | inhibition of writhing ([2]; 250 mg/kg s.c.): greater than 85% | inhibition of carrageenan edema (carrageenan edema; 75 mg/kg/hr for 1 week before carrageenan, each time period): significant inhibition | activity on carrageenan edema (carrageenan edema; 100 mg/kg dose): did not show any activity | inhibition of hind paw swelling (carrageenan edema; 100 mg/kg, administered 2 hours after induction of inflammation): only effective at hour 3 | inhibition of hind paw edema (carrageenan edema; 250 mg/kg s.c. 30 minutes before carrageenan): 43% | inhibition of hind paw swelling (carrageenan edema; 250 mg/kg, administered 2 hours after induction, up to 6 hours post-phlogistic agent): significant inhibition of hind paw swelling | inhibition of hind paw edema (carrageenan edema; 500 mg/kg s.c. 30 minutes before carrageenan): 67% | inhibition of hind paw swelling (carrageenan edema; 500 mg/kg, administered 2 hours after induction, up to 6 hours post-phlogistic agent): significant inhibition of hind paw swelling | Inhibition (%) (carrageenan edema; Carrageenan, PBA s.c. 30 minutes before, measured 2 hours after, P < .05): 66.7^b % | Hind Paw Volume (mL ± S.E.M.) (carrageenan edema; Carrageenan, PBA s.c. 30 minutes before, measured 2 hours after, n = 8): 0.31 ± 0.07 mL | dose dependence of inhibition of hind paw edema (carrageenan edema; s.c. 30 minutes before carrageenan, at 2 and 3 hours post-administration): dose-related inhibition | serum PAM activity compared to controls ([3]; 75 mg/kg/hr for 7 days, prior to carrageenan (time 0)): significantly reduced | serum PAM activity vs control ([3]; 500 mg/kg s.c. single dose, after 24 hours): not significantly different from control values | dose dependence of inhibition of serum PAM activity ([3]; 50, 150 and 500 mg/kg, normal rats): dose-related | sustained reduction in serum PAM activity ([3]; continuous release 50 to 100 mg/kg/hr s.c. via osmotic pumps, throughout 7 day dosing period): > 75% | inhibition at 500 mg/kg ([3]; 500 mg/kg s.c. single dose, by 6 hours): 43% | inhibition at 500 mg/kg ([3]; 500 mg/kg s.c. single dose, conscious rats, within 1 hour, remained during first 3 hours): > 90% | Inhibition (%) (bradykinin edema; Bradykinin 50 μg, PBA s.c. 1 hour before, measured 30 minutes after): 25.6% | Hind Paw Volume (mL ± S.E.M.) (bradykinin edema; Bradykinin 50 μg, PBA s.c. 1 hour before, measured 30 minutes after, n = 8): 0.29 ± 0.04 mL | inhibitory activity on edema produced by bradykinin (bradykinin edema; [5]): lacked significant inhibitory activity | Inhibition (%) (serotonin edema; Serotonin 20 μg, PBA s.c. 30 minutes before, measured 1 hour after): 18.5% | Hind Paw Volume (mL ± S.E.M.) (serotonin edema; Serotonin 20 μg, PBA s.c. 30 minutes before, measured 1 hour after, n = 8): 0.66 ± 0.03 mL | inhibitory activity on edema produced by serotonin (serotonin edema; [5]): lacked significant inhibitory activity | analgesic effect in writhing assay ([4]; 100 mg/kg dose): significant analgesic effect | ED50 ([4]; Mus musculus, sc, s.c. 15 minutes before acetylcholine, percentage of animals per group that writhed (all or none)): 105 mg/kg
